Measurements: patent US20070258986A1, “Targeted Delivery System for Bioactive Agents” (Govt of the US as represented by the secretary,, priority 2003, published 2007)

Key:
Y289L GalT [1] = molecular target: T1, Y289L GalT (Bos taurus, UniProt P08037, Y289L); assay: Labeling of O-GlcNAc glycosylated CREB protein with analogue 1 and Y289L GalT, aminooxy biotin, streptavidin-HRP blot; assay type: biochemical, bovine; settings: recombinant CREB from Sf9 cells, analogue 1 1 mM, 12 h at 4° C., then aminooxy biotin
T1 construct: the catalytic domain of GalT has a tyrosine exchanged with another amino acid; made in house
T1 sequence (P08037 130-402 Y289L limits assumed): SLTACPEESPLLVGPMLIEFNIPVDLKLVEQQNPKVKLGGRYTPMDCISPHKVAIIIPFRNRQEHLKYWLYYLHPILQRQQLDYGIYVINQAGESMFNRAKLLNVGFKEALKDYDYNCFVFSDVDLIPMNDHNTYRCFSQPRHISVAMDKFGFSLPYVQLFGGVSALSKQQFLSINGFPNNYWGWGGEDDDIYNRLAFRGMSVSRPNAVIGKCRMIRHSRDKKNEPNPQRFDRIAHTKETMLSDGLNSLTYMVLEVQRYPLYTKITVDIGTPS
Method: Labeling of CREB protein: Recombinant O-GlcNAc glycosylated CREB was generated by coexpression of CREB with O-GlcNAc glycosyltransferase in Sf9 cells as described previously (Lamarre-Vincent et al., 2003). 500 ng of CREB in 20 mM HEPES pH 7.9, 100 mM KCl, 0.2 mM EDTA, 15% glycerol was added to 50 mM MOPS pH 6.45 containing 5 mM MnCl2 and 0.25 mU/μL alkaline phosphatase (Unverzagt et al., 1990). Analogue 1 and Y289L GalT were then added to final concentrations of 1 mM and 40 ng/μL, respectively. Control reactions without enzyme or analogue 1 were treated identically. Following incubation at 12 h at 4° C., the reactions were diluted 5-fold into PBS containing protease inhibitors (5 μg/mL pepstatin, 5 μg/mL chymostatin, 20/μg/mL leupeptin, 20 μg/mL aprotinin, 20 μg/mL antipain, 0.2 mM PMSF). Aminooxy biotin was added to a final concentration of 2 mM, and the biotinylation reactions were incubated with gentle shaking for 12 h at 37° C. Reactions were aliquoted for analysis and stopped by boiling in SDS-PAGE loading dye. Proteins were resolved by 10% SDS-PAGE, electrophoretically transferred to nitrocellulose, and probed with streptavidin-HRP. […]

Y289L GalT [2] = molecular target: T1, Y289L GalT; assay: Labeling of the O-GlcNAc peptide with ketone analogue 1 by mutant Y289L GalT (LC-MS); assay type: biochemical, bovine; settings: peptide TAPTS(O-GlcNAc)TIAPG 10 μM, analogue 1 1 mM, 6 h at 4° C.
Method: Labeling of the O-GlcNAc Peptide: The peptide TAPTS(O-GlcNAc)TIAPG (10 μM was dissolved in 25 mM MOPS buffer, pH 6.7 containing 5 mM MnCl2 and 8 μM reference peptide (ThermoFinnigan, San Jose, Calif.). Ketone analogue 1 and mutant Y289L GalT were added to final concentrations of 1 mM and 100 ng/μL, respectively. Prior to enzyme addition, an aliquot of the reaction was removed as an initial time point for LC-MS analysis. Reactions were incubated at 4° C. for 6 h, after which an aliquot of the reaction mixture was removed for product analysis by LC-MS. The remainder of the reaction was diluted 5-fold into PBS (final concentration: 10.1 mM Na2HPO4, 1.76 mM KH2 HPO4, 137 mM NaCl, 2.7 mM KCl, pH 6.7), and N-(aminooxyacetyl)-N′-(D-biotinoyl) hydrazine (Molecular Probes, Eugene, Oreg.) was added to a final concentration of 12 mM. After 8 h at 25° C., the extent of biotin-oxime product was measured by LC-MS. […] Labeling reactions with wild-type GalT were performed identically, with the exception that reactions were incubated at 37° C. for 12 h. […]
For the aminooxy biotin reaction, formation of the oxime product was monitored using an extracted ion chromatogram within the mass range 1319.0-1321.0 m/z and 1633.0-1635.5 m/z, which was generated post-acquisition via the Xcalibur™ software. […]

Q: Which “labeling of glycosylated CREB (chemiluminescence)” value (Y289L GalT [1]; diammonium salt) does the source give for `CC(=O)C[C@H]1[C@@H](OP(=O)(O)OP(=O)(O)OC[C@H]2O[C@@H](n3ccc(=O)[nH]c3=O)[C@H](O)[C@@H]2O)O[C@H](CO)[C@H](O)[C@@H]1O.N.N` [analogue 1, Uridine 5′-diphospho-2-acetonyl-2deoxy-α-D-galactopyranose diammonium salt] here?
A: Strong, selective labeling

Q: What about the “labeling of glycosylated CREB (chemiluminescence)” value (Y289L GalT [1]; listed as 1, diammonium salt) of the same compound?
A: Strong labeling

Q: And the “conversion of the peptide to the ketone-labeled product” value (Y289L GalT [2])?
A: complete conversion
